Experimental findings from ChEMBL document CHEMBL2375343, “(4-Phenoxyphenyl)tetrazolecarboxamides and related compounds as dual inhibitors of fatty acid amide hydrolase (FAAH) and monoacylglycerol lipase (MAGL)” (Eur J Med Chem, 2013) are described below.

The source made the active and inactive calls. No cut-off for these calls is given here.

The target in series [1] is T1, Fatty-acid amide hydrolase 1 (Rattus norvegicus, UniProt P97612).
T1 sequence (P97612 whole entry): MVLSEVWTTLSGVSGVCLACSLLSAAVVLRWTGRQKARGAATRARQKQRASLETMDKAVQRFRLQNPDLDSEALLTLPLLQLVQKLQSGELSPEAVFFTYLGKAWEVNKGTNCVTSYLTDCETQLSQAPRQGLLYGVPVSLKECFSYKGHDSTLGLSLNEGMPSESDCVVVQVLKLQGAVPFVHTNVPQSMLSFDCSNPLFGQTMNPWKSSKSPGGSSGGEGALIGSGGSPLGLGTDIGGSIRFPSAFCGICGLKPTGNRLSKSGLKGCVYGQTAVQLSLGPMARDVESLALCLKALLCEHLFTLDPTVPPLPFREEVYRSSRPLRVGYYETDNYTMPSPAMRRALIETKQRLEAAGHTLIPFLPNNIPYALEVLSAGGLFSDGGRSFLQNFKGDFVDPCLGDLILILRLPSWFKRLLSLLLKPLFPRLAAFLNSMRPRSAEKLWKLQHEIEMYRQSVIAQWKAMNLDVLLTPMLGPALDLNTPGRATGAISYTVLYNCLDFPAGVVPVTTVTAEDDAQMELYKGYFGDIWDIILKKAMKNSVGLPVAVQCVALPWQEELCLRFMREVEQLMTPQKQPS
The experiment in a line: Inhibition of FAAH in Sprague-Dawley rat brain microsomes assessed as N-(2-hydroxyethyl)-4-pyren-1-ylbutanamide conversion to 4-pyren-1-ylbutanoic acid preincubated for 10 mins measured after 45 mins by HPLC analysis.

A further series is filed under the species Sus scrofa. The experiment in a line: Inhibition of cytosolic phospholipase A2alpha in porcine platelets assessed as 1-stearoyl-2-arachidonoyl-sn-glycero-3-phosphocholine conversion to arachidonic acid at 10 uM by HPLC analysis.
Series [2] is described as follows: Metabolic stability in Wistar rat liver S9 fraction at 20 uM after 30 mins by HPLC analysis. The class given is ADME, subcellular. The settings on record: read-out: Stability.
Series [3] has as its target T2, Monoglyceride lipase (Homo sapiens) (UniProt Q99685).
T2 sequence (whole entry): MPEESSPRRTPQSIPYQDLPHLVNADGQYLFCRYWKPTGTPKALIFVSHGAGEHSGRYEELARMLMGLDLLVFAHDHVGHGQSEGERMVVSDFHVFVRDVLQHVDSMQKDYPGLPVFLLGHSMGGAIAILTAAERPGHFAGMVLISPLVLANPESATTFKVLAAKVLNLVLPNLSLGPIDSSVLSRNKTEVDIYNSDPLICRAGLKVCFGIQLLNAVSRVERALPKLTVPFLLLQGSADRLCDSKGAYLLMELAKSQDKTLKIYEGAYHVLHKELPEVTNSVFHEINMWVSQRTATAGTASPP
The experiment in a line: Inhibition of human recombinant MAGL-mediated 1,3-dihydroxypropan-1-yl 4-pyren-1-ylbutanoate conversion to 4-pyren-1-ylbutanoic acid at 10 uM preincubated for 15 mins measured after 45 mins by HPLC analysis relative to control.

Series [4] has as its target T3, Fatty-acid amide hydrolase 1 (Rattus norvegicus) (UniProt P97612).
T3 sequence (whole entry): T1 sequence (P97612 whole entry)
The experiment in a line: Inhibition of FAAH in Sprague-Dawley rat brain microsomes assessed as N-(2-hydroxyethyl)-4-pyren-1-ylbutanamide conversion to 4-pyren-1-ylbutanoic acid at 10 uM preincubated for 10 mins measured after 45 mins by HPLC analysis relative to control.

The target in series [5] is T4, Monoglyceride lipase (Homo sapiens, UniProt Q99685).
T4 sequence (Q99685 whole entry): T2 sequence (whole entry)
The experiment in a line: Inhibition of human recombinant MAGL-mediated 1,3-dihydroxypropan-1-yl 4-pyren-1-ylbutanoate conversion to 4-pyren-1-ylbutanoic acid preincubated for 15 mins measured after 45 mins by HPLC analysis.

Series [6] addresses T5, Monoglyceride lipase (Rattus norvegicus, UniProt Q8R431).
T5 sequence (Q8R431 whole entry): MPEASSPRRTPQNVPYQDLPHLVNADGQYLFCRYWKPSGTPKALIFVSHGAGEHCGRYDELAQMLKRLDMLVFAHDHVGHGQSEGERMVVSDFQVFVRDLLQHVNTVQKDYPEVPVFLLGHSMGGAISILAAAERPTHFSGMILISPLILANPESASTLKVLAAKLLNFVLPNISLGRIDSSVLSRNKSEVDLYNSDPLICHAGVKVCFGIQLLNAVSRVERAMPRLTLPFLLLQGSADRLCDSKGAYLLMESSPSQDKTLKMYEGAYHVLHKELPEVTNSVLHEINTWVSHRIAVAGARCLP
The experiment in a line: Inhibition of MAGL in rat cerebellar membranes. The series is classed as cell membranes, Membrane.

In series [7] the target is T4, Monoglyceride lipase. In words: Inhibition of human MAGL expressed in Escherichia coli using 6-methoxy-4-methylcoumarin ester as substrate after 3 hrs by mass spectroscopic analysis.
Series [8] in a line: Selectivity ratio of IC50 for human recombinant MAGL to IC50 for FAAH in Sprague-Dawley rat brain microsomes. To be noted: Microsome.
Series [9] deals with T4, Monoglyceride lipase. In words: Inhibition of MAGL (unknown origin).
Series [10] has as its target T6, Fatty-acid amide hydrolase 1 (Homo sapiens, UniProt O00519).
T6 sequence (O00519 whole entry): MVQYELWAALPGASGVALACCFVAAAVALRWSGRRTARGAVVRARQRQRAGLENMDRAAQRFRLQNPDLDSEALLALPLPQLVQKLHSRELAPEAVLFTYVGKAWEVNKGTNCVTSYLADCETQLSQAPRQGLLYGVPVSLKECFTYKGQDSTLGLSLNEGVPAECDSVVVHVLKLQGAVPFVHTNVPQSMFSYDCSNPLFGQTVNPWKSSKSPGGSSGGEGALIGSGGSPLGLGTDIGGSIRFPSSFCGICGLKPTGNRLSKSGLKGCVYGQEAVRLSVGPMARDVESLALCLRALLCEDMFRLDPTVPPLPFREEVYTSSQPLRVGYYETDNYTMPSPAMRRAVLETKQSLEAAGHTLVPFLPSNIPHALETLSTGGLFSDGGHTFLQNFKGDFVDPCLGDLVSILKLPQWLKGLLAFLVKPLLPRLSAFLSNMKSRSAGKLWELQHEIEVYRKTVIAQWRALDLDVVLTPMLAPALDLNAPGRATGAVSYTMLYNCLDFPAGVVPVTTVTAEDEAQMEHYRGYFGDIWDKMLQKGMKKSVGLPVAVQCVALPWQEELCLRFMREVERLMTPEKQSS
In words: Inhibition of FAAH (unknown origin).

Series [11] has as its target T5, Monoglyceride lipase. The experiment in a line: Inhibition of rat MAGL expressed in monkey COS7 cells. The series is classed as cell-based, COS-7.
The target of series [12] is T4, Monoglyceride lipase. In words: Inhibition of MAGL (unknown origin) using 4-nitrophenylacetate as substrate.

For orientation: IC50 means the point on the concentration scale where inhibition reaches its midpoint. Regarding `COc1ccc(Oc2ccc(-c3nnn(C(=O)N(C)C)n3)cc2)cc1`, the IC50 in series [1] turned out to be 13 nM.

Take `CN(C)C(=O)n1nnc(-c2ccc(-n3cccn3)cc2)n1`: in [1], the IC50 amounted to 8 nM.

As to `Cc1cc(C(=O)c2ccccc2)c(C)n1-c1ccc(-c2nnn(C(=O)N(C)C)n2)cc1`, in series [1], the IC50 was 16 nM.

For the compound `COc1cccc(Oc2ccc(-c3nnn(C(=O)N(C)C)n3)cc2)c1`, the IC50 in series [1] was 15 nM.

In general, inhibition refers to the relative decrease from the control value, in per cent. Regarding `CN(C)C(=O)n1nnc(-c2ccc(Oc3ccccc3)cc2)n1`, in the series listed under Sus scrofa, the inhibition entry is “inactive”. Besides, in [2], the remaining at 0.5 h, 20 µM was determined as 0%. Also, the IC50 in [1] turned out to be 12 nM.

As to `O=C1NCC(c2ccc(Oc3ccccc3)cc2)O1` (configuration not stated), the inhibition result in [3] and in [4] was “inactive” throughout.

With `CCN(CC)C(=O)n1nnc(-c2ccc(Oc3ccccc3)cc2)n1`, the remaining at 0.5 h, 20 µM in series [2] worked out at 0%. The half-maximal inhibitory concentration (IC50) in series [1] was determined as 37 nM.

As to `CN(C)C(=O)n1nnc(-c2ccc(Cn3ccc4ccccc43)cc2)n1`, the IC50 in series [1] was 88 nM.

As to `Cc1cccc(Oc2ccc(-c3nnn(C(=O)N(C)C)n3)cc2)c1`, in series [1], the IC50 was found to be 13 nM.

With `CN(C)C(=O)n1nnc(-c2ccc(Oc3cccc(Cl)c3)cc2)n1`, the IC50 in series [1] stood at 9 nM.

On to `CN(C)C(=O)n1nnc(Cc2ccc(-c3ccccc3)cc2)n1`, for which, in the series listed under Sus scrofa, the inhibition result is “inactive”. For the same compound, the IC50 at Monoglyceride lipase [5] is 6 nM; in series [1], 12 nM.

Take `CN(C)C(=O)n1nnc(-c2ccc(-n3cccc3)cc2)n1`: in series [1], the IC50 stood at 5 nM.

As to `CCCCC/C=C\C/C=C\C/C=C\C/C=C\CCCCN1C(=O)C=CC1=O`, the concentration for half-maximal inhibition (IC50) against Monoglyceride lipase [6] stood at 140 nM; against Monoglyceride lipase [7], 2800 nM. Moreover, the inhibition entry in [3] was “inactive”. In series [4], the inhibition is 38%.

Regarding `CCCCCC(=O)c1cc(C)n(-c2ccc(-c3nnn(C(=O)N(C)C)n3)cc2)c1C`, the IC50 in [1] stood at 11 nM.

Consider `CN(C)C(=O)n1nnc(-c2ccc(-n3ccc4ccccc43)cc2)n1`, for which the IC50 in [1] was 12 nM.

Regarding `CN(C)C(=O)n1nnnc1Cc1ccc(-c2ccccc2)cc1`, the inhibition entry in the series listed under Sus scrofa is “inactive”. The IC50 at Monoglyceride lipase [5] came out at 290 nM; in series [1], 5 nM. In series [8], the Ratio IC50 was 60.

On to `CN(C)C(=O)n1nnc(-c2ccc(Oc3ccc(Cl)c(Cl)c3)cc2)n1`, for which the IC50 in [1] came to 11 nM.

For `COc1nn(-c2ccc(Oc3ccccc3)cc2)c(=O)o1`, the IC50 at Monoglyceride lipase [9] was 78 nM; in [10] it was 65 nM; at Monoglyceride lipase [5], 310 nM; in series [1] it was 720 nM.

For the compound `O=C1N=C(O)S/C1=C\c1ccc(Oc2ccccc2)cc1`, the inhibition result in series [3] and in series [4] was “inactive” throughout.

Take `Cc1cc(C(=O)C(C)(C)C)c(C)n1-c1ccc(-c2nnn(C(=O)N(C)C)n2)cc1`: the IC50 in series [1] was 29 nM.

For the compound `Cc1ccc(Oc2ccc(-c3nnn(C(=O)N(C)C)n3)cc2)cc1`, the IC50 in series [1] amounted to 24 nM.

Take `CC(C)N(C(=O)n1nnc(-c2ccc(Oc3ccccc3)cc2)n1)C(C)C`: the remaining at 0.5 h, 20 µM in series [2] is 27%. Moreover, in [3], the inhibition entry is “inactive”. For the same compound, the IC50 in series [1] was over 10000 nM. Besides, the inhibition in [4] was 17%.

As for `CN(C)C(=O)n1nnnc1Cc1ccc(Oc2ccccc2)cc1`, the inhibition entry in the series filed under Sus scrofa was “inactive”. Further, the IC50 in series [1] came to 6 nM.

As to `CN(C)C(=O)n1nnc(-c2ccc(Oc3ccc(F)cc3)cc2)n1`, the IC50 in series [1] was determined as 14 nM.

On to `Cc1cc(C(=O)c2ccc(-c3ccccc3)cc2)c(C)n1-c1ccc(-c2nnn(C(=O)N(C)C)n2)cc1`, for which the IC50 in [1] was 40 nM.

On to `CN(C)C(=O)n1nnc(-c2ccc(Cn3cccc3)cc2)n1`, for which the IC50 in series [1] is 11 nM.

For `CN(C)C(=O)n1nnnc1-c1ccc(Oc2ccccc2)cc1`, the inhibition entry in the series filed under Sus scrofa is “inactive”. Further, the IC50 in series [1] was determined as 7 nM.

For the compound `Cc1ccc(C)n1-c1ccc(-c2nnn(C(=O)N(C)C)n2)cc1`, the IC50 in series [1] is 9 nM.

On to `O=C1C=CC(=O)N1Cc1ccc(Oc2ccccc2)cc1`, for which the inhibition in [3] is 44%. Moreover, the 50% inhibitory concentration (IC50) on Monoglyceride lipase [5] is over 10000 nM; in series [1], 4900 nM.

With `Cc1ccc(C)n1Cc1ccc(-c2nnn(C(=O)N(C)C)n2)cc1`, the IC50 in series [1] amounted to 140 nM.

In the case of `O=C(NC1CCCCC1)N1CC(c2ccc(Oc3ccccc3)cc2)OC1=O` (configuration not stated), the inhibition entry in [3] and in series [4] was “inactive” in each case.

Consider `CN(C)C(=O)n1nnc(Cc2ccc(Oc3ccccc3)cc2)n1`, for which the inhibition entry in the series listed under Sus scrofa was “inactive”. In addition, the IC50 in series [1] is 9 nM.

For `O=c1[nH]c(-c2ccc(Oc3ccccc3)cc2)no1`, the inhibition entry in [3] and in series [4] was “inactive” throughout.

As for `O=C1C=CC(=O)N1c1ccc(Oc2ccccc2)cc1`, the IC50 in series [1] worked out at 5300 nM.

Take `O=C(Oc1ccc([N+](=O)[O-])cc1)N1CCC(C(O)(c2ccc3c(c2)OCO3)c2ccc3c(c2)OCO3)CC1`: half-maximal inhibition against Monoglyceride lipase [11] (IC50) was put at 25 nM. In [4], the inhibition entry is “inactive”.

Consider `CC(=O)c1cc(C)n(-c2ccc(-c3nnn(C(=O)N(C)C)n3)cc2)c1C`, for which, in series [1], the IC50 was determined as 9 nM.

Turning to `CN(C)C(=O)n1nnc(-c2ccc(Oc3ccc(Cl)cc3)cc2)n1`, the IC50 in series [1] is 16 nM.

For the compound `O=C(CCCCCc1ccccc1)c1nc2ncccc2o1`, in [3], the inhibition entry was “inactive”. In addition, the IC50 in [1] was 4 nM.

As to `COc1nn(-c2ccc(NC(=O)OCc3ccccc3)c(C)c2)c(=O)o1`, the IC50 on Monoglyceride lipase [9] is 92 nM; in series [10], 76 nM; on Monoglyceride lipase [5], 480 nM; in [1], 1300 nM; at Monoglyceride lipase [12], 400 nM.

In the case of `CN(C)C(=O)n1nnc(-c2ccc(Oc3cccc(F)c3)cc2)n1`, the IC50 in series [1] amounted to 10 nM.
